Laboratory results published in the NIST ThermoML archive (doi:10.1021/acs.jced.7b00604).
± gives the expanded uncertainty stated by the source.

Assay: xn = mol fraction of the nth substance listed
Conditions: 100 kPa, Liquid; for speed of sound: Frequency=3 MHz, Sing-around technique in a fixed-path interferometer; for mass density: Vibrating tube method

COCCO [2-methoxyethan-1-ol] + CCCC[n+]1ccn(C)c1.O=S(=O)([N-]S(=O)(=O)C(F)(F)F)C(F)(F)F
Conditions	mass density [kg/m3]	speed of sound [m/s]
298.15 K, x2 = 0	960.31 ± 1	1341.8 ± 1.5
298.15 K, x2 = 0.0966	1098.07 ± 1.1	1301.4 ± 1.5
298.15 K, x2 = 0.1943	1188.97 ± 1.1	1279.7 ± 1.5
298.15 K, x2 = 0.2887	1250.58 ± 1.1	1266 ± 1.5
298.15 K, x2 = 0.3979	1302.72 ± 1.1	1253.5 ± 1.5
298.15 K, x2 = 0.4792	1332.79 ± 1.1	1246.7 ± 1.5
298.15 K, x2 = 0.5943	1365.91 ± 1.1	1239.9 ± 1.5
298.15 K, x2 = 0.6753	1384.52 ± 1.1	1236.6 ± 1.5
298.15 K, x2 = 0.8101	1409.81 ± 1.1	1232.5 ± 1.5
298.15 K, x2 = 0.8849	1421.49 ± 1.1	1230.2 ± 1.5
303.15 K, x2 = 0	955.71 ± 1	1324.1 ± 1.5
303.15 K, x2 = 0.0966	1093.42 ± 1.1	1285.2 ± 1.5
303.15 K, x2 = 0.1943	1184.24 ± 1.1	1264.7 ± 1.5
303.15 K, x2 = 0.2887	1245.82 ± 1.1	1251.7 ± 1.5
303.15 K, x2 = 0.3979	1298.03 ± 1.1	1240.4 ± 1.5
303.15 K, x2 = 0.4792	1328.12 ± 1.1	1234.1 ± 1.5
303.15 K, x2 = 0.5943	1361.32 ± 1.1	1227.6 ± 1.5
303.15 K, x2 = 0.6753	1379.92 ± 1.1	1224.9 ± 1.5
303.15 K, x2 = 0.8101	1405.23 ± 1.1	1221.2 ± 1.5
303.15 K, x2 = 0.8849	1416.91 ± 1.1	1219 ± 1.5
308.15 K, x2 = 0	951.08 ± 1	1307.3 ± 1.5
308.15 K, x2 = 0.0966	1088.78 ± 1.1	1269.8 ± 1.5
308.15 K, x2 = 0.1943	1179.32 ± 1.1	1250.1 ± 1.5
308.15 K, x2 = 0.2887	1240.86 ± 1.1	1237.7 ± 1.5
308.15 K, x2 = 0.3979	1292.99 ± 1.1	1227.8 ± 1.5
308.15 K, x2 = 0.4792	1323.11 ± 1.1	1221.7 ± 1.5
308.15 K, x2 = 0.5943	1356.31 ± 1.1	1216.1 ± 1.5
308.15 K, x2 = 0.6753	1374.96 ± 1.1	1213.3 ± 1.5
308.15 K, x2 = 0.8101	1400.24 ± 1.1	1209.9 ± 1.5
308.15 K, x2 = 0.8849	1411.97 ± 1.1	1208.2 ± 1.5
313.15 K, x2 = 0	946.41 ± 1	1292 ± 1.5
313.15 K, x2 = 0.0966	1084.06 ± 1.1	1255.3 ± 1.5
313.15 K, x2 = 0.1943	1174.55 ± 1.1	1236.4 ± 1.5
313.15 K, x2 = 0.2887	1236.14 ± 1.1	1224.7 ± 1.5
313.15 K, x2 = 0.3979	1288.26 ± 1.1	1215.7 ± 1.5
313.15 K, x2 = 0.4792	1318.36 ± 1.1	1209.7 ± 1.5
313.15 K, x2 = 0.5943	1351.69 ± 1.1	1204.9 ± 1.5
313.15 K, x2 = 0.6753	1370.39 ± 1.1	1202 ± 1.5
313.15 K, x2 = 0.8101	1395.76 ± 1.1	1198.9 ± 1.5
313.15 K, x2 = 0.8849	1407.44 ± 1.1	1197.3 ± 1.5
318.15 K, x2 = 0	941.72 ± 1	1274.2 ± 1.5
318.15 K, x2 = 0.0966	1079.38 ± 1.1	1238.8 ± 1.5
318.15 K, x2 = 0.1943	1169.76 ± 1.1	1221.3 ± 1.5
318.15 K, x2 = 0.2887	1231.28 ± 1.1	1210.4 ± 1.5
318.15 K, x2 = 0.3979	1283.31 ± 1.1	1202.3 ± 1.5
318.15 K, x2 = 0.4792	1313.34 ± 1.1	1197.1 ± 1.5
318.15 K, x2 = 0.5943	1346.72 ± 1.1	1192.7 ± 1.5
318.15 K, x2 = 0.6753	1365.42 ± 1.1	1190.3 ± 1.5
318.15 K, x2 = 0.8101	1390.82 ± 1.1	1187.7 ± 1.5
318.15 K, x2 = 0.8849	1402.59 ± 1.1	1186.3 ± 1.5
323.15 K, x2 = 0	936.99 ± 1	1259.4 ± 1.5
323.15 K, x2 = 0.0966	1074.61 ± 1.1	1224.6 ± 1.5
323.15 K, x2 = 0.1943	1165.02 ± 1.1	1207.8 ± 1.5
323.15 K, x2 = 0.2887	1226.67 ± 1.1	1197.6 ± 1.5
323.15 K, x2 = 0.3979	1278.8 ± 1.1	1190.1 ± 1.5
323.15 K, x2 = 0.4792	1308.85 ± 1.1	1185 ± 1.5
323.15 K, x2 = 0.5943	1342.24 ± 1.1	1181.1 ± 1.5
323.15 K, x2 = 0.6753	1361.02 ± 1.1	1179.1 ± 1.5
323.15 K, x2 = 0.8101	1386.53 ± 1.1	1176.9 ± 1.5
323.15 K, x2 = 0.8849	1398.24 ± 1.1	1175.9 ± 1.5
